According to patent US9365633B2, “Peptide preparations and peptides with antitumour activity” (Instytut Medycyny Doswiadczalnej I Klinicznej Pan, priority 2010, dated 2016):

System: melanoma cells of the line MeW 155
Test: Effect of synthetic peptides on proliferation of melanoma cells, 3 day culture in 96-well plate
Format: cell-based
Conditions: 3 days of culture; for cell numbers, % of the control: 4000 cells per well; for toxicity to MeW 155 melanoma cells: MeW 155, 0.1 mM
Description: The synthetic peptides were examined for their effect on the proliferation of melanoma cells of the line MeW 155. The culture was maintained under standard conditions for 3 days with 4000 cells per well of a 96-well culture plate. After three days, the numbers of cells in the control group increased to 120 000. It turned out that after 3 days of culture, peptide 91 at a concentration of 0.004 mM decreased cell numbers to 55% of the control, and a 0.02 mM concentration decreased the cells to 35%, whereas 0.1 mM was toxic to MeW 155 cells. Peptide 92 at 0.004 mM decreased the number of tumour cells to 65% of the control, a 0.02 mMol concentration decreased the number of cells to 49%, and a concentration of 0.1 mM was toxic to melanoma cells.

| Sequence | cell numbers, % of the control (MeW 155, 0.004 mM) [%] | cell numbers, % of the control (MeW 155, 0.02 mM) [%] | toxicity to MeW 155 melanoma cells |
| --- | --- | --- | --- |
| YRPWGSGSGF [compound 92] | 65 | 49 | toxic |
| YRPWGSGSGFG [peptide 91] | 55 | 35 | toxic |
